Source: US12428380B2 (PSYLO PTY LTD, priority 2023, dated 2025)

Tests used:
5-HT2A = target: T1, 5-HT2A (Homo sapiens, UniProt P28223); experiment: FLIPR Ca2+ flux functional assay, 5-HT2A (HEK293); format: cell-based; conditions: HEK293 cells expressing 5-HT2A; for Emax: HEK293, agonist activity; for EC50: agonist activity
T1 construct: host or cells: HEK293

5-HT2B [1] = target: T2, 5-HT2B (Homo sapiens, UniProt P41595); experiment: FLIPR Ca2+ flux functional assay, 5-HT2B (CHO-K1); format: cell-based; conditions: CHO-K1 cells expressing 5-HT2B; for Emax: CHO-K1, agonist activity
T2 construct: host or cells: CHO-K1
T2 sequence (P41595 whole entry, species assumed): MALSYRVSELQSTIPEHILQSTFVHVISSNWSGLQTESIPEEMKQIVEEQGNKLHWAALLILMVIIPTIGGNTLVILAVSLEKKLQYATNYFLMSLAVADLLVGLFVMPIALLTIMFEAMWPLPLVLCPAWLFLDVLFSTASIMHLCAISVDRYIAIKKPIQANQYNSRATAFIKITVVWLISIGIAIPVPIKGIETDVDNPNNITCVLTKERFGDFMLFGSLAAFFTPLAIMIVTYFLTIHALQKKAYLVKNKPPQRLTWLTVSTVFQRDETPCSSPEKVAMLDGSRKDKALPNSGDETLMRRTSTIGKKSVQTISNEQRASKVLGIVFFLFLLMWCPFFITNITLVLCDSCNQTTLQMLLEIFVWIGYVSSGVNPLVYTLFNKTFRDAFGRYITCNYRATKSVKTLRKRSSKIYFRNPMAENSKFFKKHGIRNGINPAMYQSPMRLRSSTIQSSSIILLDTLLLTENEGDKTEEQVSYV

5-HT2C = target: T3, 5-HT2C (Homo sapiens, UniProt P28335); experiment: FLIPR Ca2+ flux functional assay, 5-HT2C (HEK293); format: cell-based; conditions: HEK293 cells expressing 5-HT2C; for Emax: HEK293, agonist activity
T3 construct: host or cells: HEK293
T3 sequence (P28335 33-458): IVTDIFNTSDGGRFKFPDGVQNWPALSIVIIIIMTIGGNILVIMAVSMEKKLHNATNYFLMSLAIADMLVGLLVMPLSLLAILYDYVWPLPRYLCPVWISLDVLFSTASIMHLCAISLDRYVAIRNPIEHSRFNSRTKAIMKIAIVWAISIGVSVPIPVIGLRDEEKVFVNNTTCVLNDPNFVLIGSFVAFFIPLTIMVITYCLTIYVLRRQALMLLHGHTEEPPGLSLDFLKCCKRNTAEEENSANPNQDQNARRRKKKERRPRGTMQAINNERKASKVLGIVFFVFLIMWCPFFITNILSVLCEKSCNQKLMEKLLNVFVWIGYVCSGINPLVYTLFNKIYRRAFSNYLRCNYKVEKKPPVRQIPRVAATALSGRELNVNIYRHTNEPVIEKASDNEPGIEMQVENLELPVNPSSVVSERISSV

ICR mice = experiment: Acute restraint stress - tail suspension test (Example 51a); format: in vivo, mouse; conditions: male ICR mice after 5 h acute restraint stress, IP, tested 10 min after treatment, FIGS. 6 and 7
Protocol: Male ICR mice (23±3 g) were purchased from BioLASCO (Taipei, Taiwan) at 4-5 weeks of age and allowed 5-7 days to acclimate to the animal research facility at Pharmacology Discovery Services (Taipei, Taiwan). Mice were housed in groups of 10 in a large cage (47×25×15 cm) on a 12-hour light cycle (lights on: 0700) and provided ad libitum food and water except during acute restraint stress and tail-suspension testing. Temperature was maintained at 20-24° C., and all rooms (colony and testing rooms) had similar lighting intensity. […] All experiments were conducted between 0900 to 1700 local time, during the light phase. […]
Tail Suspension Test (TST) Procedure: Mice were individually suspended on the edge of a shelf, 58 cm above a tabletop, using adhesive tape placed approximately 1 cm from the tip of the tail, for a total duration of 7 minutes. Using a stopwatch, the experimenters blinded to treatment groups recorded the duration of immobility (defined as hanging passively and motionless) during the 5 minutes spanning from 2-7 minutes. The data from 0-2 minutes was not recorded. […]

5-HT2B [2] = target: T2, 5-HT2B; experiment: Activation in a similar Ca2+ flux assay at a single concentration, 5-HT2B; format: cell-based; conditions: head prints 10 µM
Protocol: Activity at 5-HT2A, 5-HT2B and 5-HT2C receptors was determined using a FLIPR Ca2+ flux assay at WuXi AppTec Co. Ltd. (Hong Kong) Discovery Biology Unit according to their standard protocols. Briefly, stably transfected cells expressing the receptor of interest (HEK293 for 5-HT2A and 5-HT2C; CHO-K1 for 5-HT2B) were grown and plated in a 384 well plate and incubated at 37° C. and 5% CO2 overnight. A 250 mM stock solution of probenecid in FLIPR calcium assay buffer (10 mL) was freshly prepared and combined with a fluorescent dye (Fluo-4 Direct) to give a final assay concentration of 2.5 mM. Reference compounds were 4-fold serially diluted and the screening compounds were 3-fold serially diluted in 100% DMSO for 10 points using Agilent Bravo, and 750 nL was added to a 384 well compound plate using Echo along with 30 μL assay buffer. The fluorescent dye was then added to the assay plate along with assay buffer to a final volume of 40 μL. The cell plate was incubated for 50 min at 37° C. and 5% CO2 and placed into the FLIPR Tetra along with the compound plate. 10 μL of references and compounds were then transferred from the compound plate into the cell plate and the fluorescent signal was read.
Activation data are provided in a similar assay tested at a single 10 μM concentration.

T1 sequence (P28223 whole entry): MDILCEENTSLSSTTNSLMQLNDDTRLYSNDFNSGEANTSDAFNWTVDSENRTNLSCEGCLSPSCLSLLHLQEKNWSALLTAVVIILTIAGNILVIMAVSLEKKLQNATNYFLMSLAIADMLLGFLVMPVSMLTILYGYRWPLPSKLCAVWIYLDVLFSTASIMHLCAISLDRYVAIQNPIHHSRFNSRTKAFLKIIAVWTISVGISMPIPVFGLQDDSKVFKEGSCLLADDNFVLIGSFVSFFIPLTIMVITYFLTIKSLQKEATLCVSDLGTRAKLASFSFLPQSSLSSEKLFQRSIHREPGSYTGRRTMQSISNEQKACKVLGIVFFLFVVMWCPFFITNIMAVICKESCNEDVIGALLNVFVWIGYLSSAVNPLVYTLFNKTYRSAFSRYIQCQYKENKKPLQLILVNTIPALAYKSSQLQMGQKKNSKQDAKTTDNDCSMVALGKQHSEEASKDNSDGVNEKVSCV

CCN(CC)CCc1n[nH]c2ccc(OC)cc12 [Example P-48, N,N-diethyl-2-(5-methoxy-1H-indazol-3-yl)ethan-1-amine]
Emax (5-HT2A): 58.6%
Emax (5-HT2B [1]): 16.1%
Emax (5-HT2C): 4.22%

CCCN(CCC)CCc1n[nH]c2cccc(OC)c12 [Example P-44, 2-(4-methoxy-1H-indazol-3-yl)-N,N-dipropylethan-1-amine]
Emax (5-HT2A): 97.6%
Emax (5-HT2B [1]): 39.4%
Emax (5-HT2C): 77.2%

CCCN(CCC)CCc1n[nH]c2cccc(O)c12 [Example P-45, 3-(2-(dipropylamino)ethyl)-1H-indazol-4-ol]
Emax (5-HT2A): 100%
Emax (5-HT2B [1]): 8.93%
Emax (5-HT2C): 40.2%

COc1cccc2[nH]nc(CCN(C)C)c12 [Example P-55, 2-(4-methoxy-1H-indazol-3-yl)-N,N-dimethylethan-1-amine]
Emax (5-HT2A): 58.7%
Emax (5-HT2B [1]): 1.35%
Emax (5-HT2C): 83.6%

CN(C)CCc1n[nH]c2ccccc12 [Example P-7]
Emax (5-HT2A): -0.3%
Emax (5-HT2B [1]): 0.17%
Emax (5-HT2C): 40.2%

CCN(C)CCc1n[nH]c2ccc(OC)cc12 [Example P-51, N-ethyl-2-(5-methoxy-1H-indazol-3-yl)-N-methylethan-1-amine]
Emax (5-HT2A): 79.1%
Emax (5-HT2B [1]): 30.9%
Emax (5-HT2C): 24.6%

CN(C)CCc1n[nH]c2cccc(O)c12 [Example P-6]
Emax (5-HT2A): 66.4%
EC50 (5-HT2A): 43.1 nM
5-HT2B Emax (5-HT2B [1]; agonist activity): 0.34%
5-HT2C Emax (5-HT2C; agonist activity): −0.79%

COc1ccc2[nH]nc(CCN(C)C)c2c1 [Example P-8, 2-(5-methoxy-1H-indazol-3-yl)-N,N-dimethylethan-1-amine]
Emax (5-HT2A): 70%
immobility time in tail suspension test (ICR mice): decrease the immobility time
Emax (5-HT2B [1]): 17.9%
Emax (5-HT2C): 72.4%

CCN(CC)CCc1n[nH]c2cccc(OC)c12 [Example P-42, 2-(4-methoxy-1H-indazol-3-yl)-N,N-diethylethan-1-amine]
Emax (5-HT2A): 68.8%
Emax (5-HT2B [1]): 0.24%
Emax (5-HT2C): 70.5%

COc1cc2c(CCN(C)C)n[nH]c2cc1F [Example A5, 2-(6-fluoro-5-methoxy-1H-indazol-3-yl)-N,N-dimethylethan-1-amine]
Emax (5-HT2A): 87%
EC50 (5-HT2A): 44.1 nM
immobility time in tail suspension test (ICR mice): decrease the immobility time
Emax (5-HT2C): 105%
EC50 (5-HT2C; agonist activity): 281 nM
5-HT2B % Activation @ 10 µM (5-HT2B [2]): 44%

CCN(CC)CCc1n[nH]c2cccc(O)c12 [Example P-43, 3-(2-(diethylamino)ethyl)-1H-indazol-4-ol]
Emax (5-HT2A): 38.9%
Emax (5-HT2B [1]): 8.01%
Emax (5-HT2C): 28.8%

CCCN(CCC)CCc1n[nH]c2ccc(OC)cc12 [Example P-49, N,N-dipropyl-2-(5-methoxy-1H-indazol-3-yl)ethan-1-amine]
Emax (5-HT2A): 67.6%
Emax (5-HT2B [1]): 30.7%
Emax (5-HT2C): -0.46%

COc1ccc2[nH]nc(CCN(C)C(C)C)c2c1 [Example P-52, N-(2-(5-methoxy-1H-indazol-3-yl)ethyl)-N-methylpropan-2-amine]
Emax (5-HT2A): 77.3%
Emax (5-HT2B [1]): 0.22%
Emax (5-HT2C): 0.09%

CCN(C)CCc1n[nH]c2c(F)ccc(OC)c12 [Example A45, N-ethyl-2-(7-fluoro-4-methoxy-1H-indazol-3-yl)-N-methylethan-1-amine]
Emax (5-HT2A): 67%
EC50 (5-HT2A): 163 nM
Emax (5-HT2C): 61%
EC50 (5-HT2C; agonist activity): 614 nM
5-HT2B % Activation @ 10 µM (5-HT2B [2]): 0%

CCN(C)CCc1n[nH]c2ccc(F)cc12 [Example A18, N-ethyl-2-(5-fluoro-1H-indazol-3-yl)-N-methylethan-1-amine]
Emax (5-HT2A): 55%
EC50 (5-HT2A): 264 nM
Emax (5-HT2C): 79%
EC50 (5-HT2C; agonist activity): 128 nM
5-HT2B % Activation @ 10 µM (5-HT2B [2]): 16%
